The test system of series [1] is fixed Caco-2 cells. Briefly: Inhibition of GST-peptide fusion binding to fixed Caco-2 cells by synthetic peptides. The conditions noted are these: peptide from 100 μg/ml serially diluted; GST fusion 10 μg. The text has this:
Caco-2 cells were fixed, treated with phenylhydrazine and blocked as described above. […] GST-PAX2 binding was inhibited by ZElan032, ZElan033, and ZElan035.

Series [2] can be described thus: Peptide stability in simulated intestinal fluid (SIF). It counts as in vitro ADME. The protocol: The relative stability for ZElanO3l, ZElanO53 and ZElan054 was determined in simulated intestinal fluid (SIF) SIF was made by dissolving 100 mg of pancreatin (Sigma cat#P-1625, lot# 122H0812)in 8.4 ml of phosphate stock solution, adjusting the pH to 7.5 with 0.2N NaOH and adjusting the volume to 10 ml with water.
Peptide (3.25 mg) was dissolved in 3.25 ml of 10,000 fold diluted SIF solution at 37° C. Aliquots (0.7 ml) of the digestion solution were then withdrawn at <1 min, 1 h, 3 h, and 21 h or 24 h. The samples were quickly passed through a syringe filter (Millipore Millex-GV 0.22 μm, part# SLGV025LS, lot# H2BM95250) and 300 μL of the filtered solution was immediately injected onto a Hewlett-Packard HPLC system equipped with a C-8 column (Applied Biosystems column and guard column: column-p/n 0711-0023 Spheri-5 ODS 5 μm, 220×4.6 mm). The products were eluted at 1.5 ml/min using an acetonitrile-water gradient. The major fluorescent peaks were collected, lyopholized and identified by MS analysis.

The subject of series [3] is P100 fractions harvested from Caco-2 cells. The series is described as follows: Binding of dansylated peptides to P100 fractions and peptide/particle correlation. The protocol: Caco-2 cell membrane (P100) and cytosolic (S100) fractions were prepared using a modification of the method described in Kinsella, B. T., O'Mahony, D. J. and G. A. FitzGerald, 1994, J. Biol. Chem. 269(47): 29914-29919. Confluent Caco-2 cell monolayers (grown in 75 cm^2 flasks for up to 1 week at 37° C. and 5% CO2) were washed twice in Dulbecco's PBS (DPBS) and the cells were harvested by centrifugation at 1000 rpm after treatment with 10 mM EDTA-DPBS. The cells were washed 3 times in DPBS and the final cell pellet was resuspended in 3 volumes of ice cold HED buffer (20 mM HEPES (pH 7.67), 1 mM EGTA, 0.5 mM dithiothreitol, 1 mM phenylmethylsulphonyl fluoride (PMSF)). The cells were allowed to swell for 5 min on ice prior to homogenization for 30 sec. The homogenates were centrifuged at 40,000 rpm for 45 min at 4° C. The supernatant (S100) was removed and the pellet (P100) was resuspended in HEDG buffer (20 mM HEPES (pH 7.67), 1 mM EGTA, 0.5 mM dithiothreitol, 100 mM NaCl, 10% glycerol, 1 mM PMSF). Protein concentrations were determined using the Bradford assay (Bradford, M. M., 1976, Anal. Biochem. 72: 248-254).
Binding of peptide and/or peptide-coated PLGA particles to membrane (P100) and cytosolic (S100) fractions was assessed by detection of the dansyl moiety incorporated in the peptide. Costar ninety six well ELISA plates were coated with S100 and P100 fractions (100 μg/ml in 0.05 M NaHCO3) overnight at 4° C. The plates were blocked with 0.5% bovine serum albumin in DPBS for 1 h at room temperature and washed 3 times in 1% BSA-DPBS. […] After washing 3 times in 1% BSA-DPBS 100 μl of TMB substrate (3,3′,5′,5-tetramethylbenzidine; Microwell Peroxidase Substrate System (Kirkegaard and Perry Laboratories 50-76-00)) was added and the optical density was measured at 650 nm at various time intervals.
Binding of dansylated peptides to P100 fractions was assessed to determine if peptide binding was predictive of peptide-coated particle binding.

Series [4] has as its system P100 membrane fractions derived from Caco-2 cells. Briefly: Dansylated peptide ELISA: relative binding of PAX2 and HAX42 peptides to P100 (ratio to ZElan021). To be noted: ratio to ZElan021 = 1.00. A digest of the protocol:
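P100 membrane fraction from Caco-2 cells (normally 100 μg/ml) coated in carbonate buffer pH9.6, blocked with 2% Marvel/PBS, then incubated with dansylated peptides. Detection via anti-mouse HRP conjugate and TMB, OD read at 650nm; binding expressed relative to ZElan021.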

In series [5] the test system is fixed Caco-2 cells. Briefly: Effect of thrombin cleavage on binding of GST-peptide fusions to fixed Caco-2 cells. To be noted: thrombin 18 h at room temperature. On the procedure: Binding of intact and thrombin-cleaved GST-peptide fusions to fixed Caco-2 cells was compared.
Thirty micrograms of each GST-peptide was treated with bovine thrombin (1 μ/ml; 0.4 NIH units; Sigma CN.T9681) for 18 h at room temperature in 2OmM Tris-HCl pH8.0, 150 mM NaCl, 2.5 mM CaCl2. Controls were similarly treated without addition of thrombin. Ten micrograms of each GST-peptide fusion was removed for PAGE analysis, and 10 μg of fusions were added in duplicate to the fixed Caco-2 cells before 5-fold serial dilutions (1% BPT diluent). The fusions were allowed to bind for 1 h at room temperature. Following 6 washes with 1% BPT, binding was assayed by ELISA.

The subject of series [6] is fixed Caco-2 or C2BBe1 cells. Briefly: ELISA of GST fusion proteins on fixed Caco-2 or C2BBe1 cells. The class given is binding. The protocol:
Fixed Caco-2, C2BBe1, and A431 cell plates were prepared by growing cells on tissue culture treated microtiter plates. When cells were confluent, plates were fixed with 10% formaldehyde, washed twice with PBS and stored with 0.5%BSA-PBS at −20° C. […] The standard ELISA procedure was followed at this point.
The standard ELISA procedure was modified as follows. GST proteins were diluted to an appropriate concentration in PBS containing lkBSA and 0.05% Tween20 (1%BPT), titered and incubated one hour at room temperature. Following five washes an anti-GST monoclonal antibody was added (Sigma, St. Louis Clone GST-2 diluted 1:10,000 in 1%BPT) and incubated one hour. After five more washes goat anti-mouse IgG2b-HRP was added (Southern Biotechnology Associates Inc., Birmingham, Ala., diluted 1:4000 in 1%BPT) and incubated one hour. After five washes plates were developed with TMB peroxidase substrate (Kirkegard and Perry, Gaithersburg, Md.). All data is presented with background binding subtracted.
A general note: In an ELISA, binding on a coated surface is turned into a signal by an enzyme label.

For series [7], the system named is polarized Caco-2 monolayers. The series is described as follows: Transport of GST-peptide fusions across polarized Caco-2 monolayers (anti-GST ELISA). The class given is in vitro ADME. On the procedure: Transport and uptake of GST-peptide fusions and deletion derivatives across cultured polarized Caco-2 monolayers over 4 hours in HBSS buffer was examined using an anti-GST ELISA assay. In another experiment, transport and uptake of GST-peptide fusions and deletion derivatives across cultured polarized Caco-2 monolayers over 24 hours in serum-free medium (SFM) was examined using an anti-GST ELISA assay.
a) 4 h HBSS study: […] (TER) across the Caco-2 monolayers grown on snapwells (passage 33; 23 days old) was measured to confirm monolayer integrity before beginning the experiment. The medium was removed and the cells were washed once with bHBSS. bHBSS containing 100 μM chloroquine was added and the cells were incubated for 2 h at 37° C. The bHBSS+chloroquine was replaced with 0.5 ml bHBSS containing GST-peptide fusions (10 μg/ml) and the cells were incubated as before. […] At 4h, TER was measured, the apical medium was sampled and the apical reservoir was washed 6 times with HBSS. […]
b) 24 h SFM study: Transepithelial electrical flux (TER) across the Caco-2 monolayers grown on snapwells (passage 33; 23 days old) was measured to confirm monolayer integrity before beginning the experiment. […] After 24 hours, TER readings were taken, and samples from the basolateral and apical reservoirs were removed. […]
In general terms: Caco-2 cells form a polarised layer with tight junctions and transporters.

Series [8] concerns ZElan024 (P31), ZElan018 (PAX2), ZElan021 (HAX42). The series is described as follows: Crossreactive binding of GST fusions to dansylated peptides. To be noted: 0.5 μg/ml concentration used in competition assays.

Square brackets hold non-standard residues; d marks the D form. Peptide text beside a SMILES is read from it. * marks the point of attachment. Dansyl = CN(C)c1cccc2c(S(=O)(=O)*)cccc12

For `C[C@@H](O)[C@H](NC(=O)[C@@H](N)CCCCNS(=O)(=O)c1cccc2c(N(C)C)cccc12)C(=O)N[C@H](CCCNC(=N)N)C(=O)N[C@@H](CCCCN)C(=O)N[C@@H](CO)C(=O)N[C@@H](CO)C(=O)N[C@H](CCCNC(=N)N)C(=O)N[C@@H](CO)C(=O)N[C@@H](CC(N)=O)C(=O)N1CCC[C@H]1C(=O)N[C@H](CCCNC(=N)N)C(=O)NCC(=O)N[C@H](CCCNC(=N)N)C(=O)N[C@H](CCCNC(=N)N)C(=O)N[C@@H](Cc1c[nH]cn1)C(=O)N1CCC[C@H]1C(=O)NCC(N)=O` [ZElan053, H2N—K(dns)TrKSSrSNPrGrrHPG—CONH2] (H-K(Dansyl)T[dR]KSS[dR]SNP[dR]G[dR][dR]HPG-NH2), in the series with fixed Caco-2 cells [1], the “inhibition of GST-P31 binding” value is given as “inhibited”. In addition, in series [2] (rank, 1 = most stable to SIF), the “Rel. Stab.” value is 1. Besides, the fraction remaining at 1 min, 1 mg/ml in series [2] (simulated intestinal fluid (pancreatin), pH 7.5, 10,000 fold diluted SIF, 37° C., read-out: Percent Remaining at: 1 m) is 100%. In addition, in series [2] (simulated intestinal fluid (pancreatin), pH 7.5, 10,000 fold diluted SIF, 37° C., read-out: Percent Remaining at: 1 h), the share remaining at 1 h, 1 mg/ml is 98.3%. The amount remaining at 3 h, 1 mg/ml in series [2] (simulated intestinal fluid (pancreatin), pH 7.5, 10,000 fold diluted SIF, 37° C., read-out: Percent Remaining at: 3 h) is 98.1%. Besides, in series [2] (simulated intestinal fluid (pancreatin), pH 7.5, 10,000 fold diluted SIF, 37° C., read-out: Percent Remaining at: 24 h), the amount remaining at 24 h, 1 mg/ml is 94%. The “binding of dansylated peptide to P100 compared to scrambled PAX2 control” value (“binding … compared to scrambled PAX2 control” below) in series [3] (initial assay) is given as “binding at the highest dilution only”.

For “H-K(Dansyl)SDHALGTNLRSDNAKEPGDYNCCGNGNSTGRKVFNRRRPSAIPT-NH2 (cysteines drawn unpaired) [ZElan021]”, the “inhibition of GST-HAX42 binding” value in the series with fixed Caco-2 cells [1] was “not inhibited”. Moreover, the “Binding value at 20 μg/ml” value in series [4] (HAX42 peptides) is reported as 1.00. Besides, the “Binding value at 25 μg/ml” value in series [4] (HAX42 peptides, first 25 μg/ml column) turned out to be 1.00; in series [4] (HAX42 peptides, second 25 μg/ml column) it was 1.00; in series [4] (HAX42 peptides, third 25 μg/ml column) it was 1.00. In addition, the “Binding value at 50 μg/ml” value was 1.00 in series [4] (HAX42 peptides, first 50 μg/ml column) and 1.00 in series [4] (HAX42 peptides, second 50 μg/ml column). Further, the “binding … compared to scrambled PAX2 control” value in series [3] (initial assay) is “strong binding”.

Take “H-K(Dansyl)STPPSREAYSRPYSVDSDSDTNAKHSSHNRRLRTRSRPNG-NH2 [ZElan018]”: the “inhibition of GST-HAX42 binding” value with fixed Caco-2 cells [1] is “inhibited”. Besides, the “Binding value at 20 μg/ml” value in series [4] (PAX2 peptides, first 20 μg/ml column) is listed as −0.33; in series [4] (PAX2 peptides, second 20 μg/ml column), 1.07. The “Binding value at 50 μg/ml” value in series [4] (PAX2 peptides, first 50 μg/ml column) is 0.95; in series [4] (PAX2 peptides, second 50 μg/ml column), 1.01. In series [3] (repeat assay), the “binding … compared to scrambled PAX2 control” value is recorded as “indistinguishable from the scrambled PAX2 control”.

“gst-RYKHDIGCDAGVDKKSSSVRGGCGAHSSPPRAGRGPRGTMVSRL [GST-DCX8]”: the “effect of thrombin cleavage on detection of binding” value in the series with fixed Caco-2 cells [5] is “significantly reduced detection of binding”. The “binding to fixed Caco-2 or C2BBe1 cells relative to GST control” value in series [6] is recorded as “bound fixed Caco-2 or C2BBe1 cells”. In series [7], the “flux relative to GST alone” value is listed as “higher flux than GST alone”.

Consider “gst-SARDSGPAEDGSRAVRLNGVENANTRKSSRSNPRGRRHP [GST-P31]”, for which, in series [6], the “binding to fixed Caco-2 or C2BBe1 cells relative to GST control” value was “bound fixed Caco-2 or C2BBe1 cells”. For the same compound, the “flux relative to GST alone” value in series [7] was “higher flux than GST alone”. Besides, the “crossreactive binding to ZElan024 (P31) and ZElan018 (PAX2)” value in series [8] is on record as “no crossreactive binding”.

What is called fraction remaining is what is left of the initial amount, in per cent.

The values are drawn from patent US6703362B1, “Random peptides that bind to gastro-intestinal tract (GIT) transport receptors and related methods” (Cytogen Corporation, priority 1997, dated 2004).
